In ChEMBL document CHEMBL4321854, “Discovery of a First-in-Class Mitogen-Activated Protein Kinase Kinase 1/2 Degrader” (J Med Chem, 2019):
Activity calls are given as the source filed them. The calls are words filed in the database; no cut-off is given here.

Columns and labels:
[1] = molecular target: von Hippel-Lindau disease tumor suppressor/Dual specificity mitogen-activated protein kinase kinase 2 (Homo sapiens, UniProt P36507+P40337, V600E); test: (§1) Protac activity against VHL/MEK2 in human UACC257 cells harboring BRAF V600E variant assessed as degradation of MEK2 after 24 hrs by Western blot analysis; type: cell-based
[2] = molecular target: T1, von Hippel-Lindau disease tumor suppressor/Dual specificity mitogen-activated protein kinase kinase 2 (Homo sapiens) (UniProt P36507+P40337); test: as §1; type: cell-based
[3] = tested on: HT-29; test: Inhibition of colony formation in human HT-29 cells at 10 to 100 nM supplemented with fresh medium containing compound every 3 days for 14 days by crystal violet staining based assay; type: functional, cell-based
[4] = Ratio of Plasma concentration in Swiss albino mouse at 50 mg/kg, ip measured after 8 hrs to GI50 for antiproliferative activity against human SK-MEL-28 cells; type: organism-based; conditions: in vivo
[5] = molecular target: T2, von Hippel-Lindau disease tumor suppressor/Dual specificity mitogen-activated protein kinase kinase 2/Dual specificity mitogen-activated protein kinase kinase 1 (Homo sapiens) (UniProt P36507+Q02750+P40337); test: Protac activity against VHL/MEK1/2 in human SK-MEL-28 cells harboring with BRAF V600E variant assessed as phosphorylation of MEK at S218/222 residues at 0.3 uM pretreated with NEDD8-activating enzyme inhibitor, MLN4924 for 2 hrs followed by incubation with compound for 10 hrs by Western blot analysis; type: cell-based
[6] = molecular target: T2, von Hippel-Lindau disease tumor suppressor/Dual specificity mitogen-activated protein kinase kinase 2/Dual specificity mitogen-activated protein kinase kinase 1 (Homo sapiens); test: Protac activity against VHL/MEK1/2 in human HT-29 cells harboring with BRAF V600E variant assessed as phosphorylation of ERK at T202/Y204 residues at 0.3 uM pretreated with proteasome inhibitor, MG-132 for 2 hrs followed by incubation with compound for 10 hrs by Western blot analysis; type: cell-based
[7] = molecular target: T3, von Hippel-Lindau disease tumor suppressor/Dual specificity mitogen-activated protein kinase kinase 1 (Homo sapiens) (UniProt Q02750+P40337); test: Protac activity against VHL/MEK1 in human SK-MEL-28 cells harboring with BRAF V600E variant assessed as degradation of MEK1 by measuring MEK1 protein level at 0.3 uM pretreated with proteasome inhibitor, MG-132 for 2 hrs followed by incubation with compound for 10 hrs by Western blot analysis; type: cell-based
[8] = molecular target: T1, von Hippel-Lindau disease tumor suppressor/Dual specificity mitogen-activated protein kinase kinase 2 (Homo sapiens); test: Protac activity against VHL/MEK2 in human HT-29 cells harboring BRAF V600E variant assessed as degradation of MEK2 by measuring reduction in MEK2 protein level at 0.5 uM after 24 hrs by Western blot analysis relative to control; type: cell-based; parameters: scale not given: the % may be the effect or the level left
[9] = molecular target: T3, von Hippel-Lindau disease tumor suppressor/Dual specificity mitogen-activated protein kinase kinase 1 (Homo sapiens); test: (§2) Protac activity against VHL/MEK1 in human SK-MEL-28 cells harboring BRAF V600E variant assessed as degradation of MEK1 after 24 hrs by Western blot analysis; type: cell-based
[10] = molecular target: von Hippel-Lindau disease tumor suppressor/Dual specificity mitogen-activated protein kinase kinase 1 (Homo sapiens, UniProt Q02750+P40337, V600E); test: as §2; type: cell-based
[11] = molecular target: T2, von Hippel-Lindau disease tumor suppressor/Dual specificity mitogen-activated protein kinase kinase 2/Dual specificity mitogen-activated protein kinase kinase 1 (Homo sapiens); test: Protac activity against VHL/MEK1/2 in human HT-29 cells harboring with BRAF V600E variant assessed as phosphorylation of ERK at T202/Y204 residues at 0.3 uM pretreated with MEK1/2 inhibitor, PD0325901 for 2 hrs followed by incubation with compound for 10 hrs by Western blot analysis; type: cell-based
[12] = molecular target: T3, von Hippel-Lindau disease tumor suppressor/Dual specificity mitogen-activated protein kinase kinase 1 (Homo sapiens); test: Protac activity against VHL/MEK1 in human HT-29 cells harboring with BRAF V600E variant assessed as degradation of MEK1 at 0.3 uM after 3 to 144 hrs by Western blot analysis; type: cell-based
[13] = tested on: SK-MEL-28; test: Inhibition of colony formation in human SK-MEL-28 cells at 10 to 100 nM supplemented with fresh medium containing compound every 3 days for 14 days by crystal violet staining based assay; type: functional, cell-based
[14] = molecular target: T3, von Hippel-Lindau disease tumor suppressor/Dual specificity mitogen-activated protein kinase kinase 1 (Homo sapiens); test: Protac activity against VHL/MEK1 in human SK-MEL-28 cells harboring with BRAF V600E variant assessed as degradation of MEK1 by measuring reduction in MEK1 protein level at 0.3 uM after 24 hrs by Western blot analysis relative to control; type: cell-based; parameters: scale not given: the % may be the effect or the level left
[15] = molecular target: T1, von Hippel-Lindau disease tumor suppressor/Dual specificity mitogen-activated protein kinase kinase 2 (Homo sapiens); test: Protac activity against VHL/MEK2 in human HT-29 cells harboring with BRAF V600E variant assessed as degradation of MEK2 at 0.1 to 0.3 uM by Western blot analysis; type: cell-based; conditions: TDE = time-dependent effect
[16] = molecular target: von Hippel-Lindau disease tumor suppressor/Leukocyte receptor cluster member 8 (Homo sapiens) (UniProt P40337+Q96PV6); test: Protac activity against VHL/LENG8 in human HT-29 cells harboring with BRAF V600E variant assessed as LENG8 protein level at 0.1 uM after 10 hrs by Western blot analysis; type: cell-based
[17] = molecular target: T3, von Hippel-Lindau disease tumor suppressor/Dual specificity mitogen-activated protein kinase kinase 1 (Homo sapiens); test: Protac activity against VHL/MEK1 in human HT-29 cells harboring with BRAF V600E variant assessed as degradation of MEK1 by measuring reduction in MEK1 protein level at 0.3 uM after 8 hrs by Western blot analysis relative to control; type: cell-based; parameters: scale not given: the % may be the effect or the level left
[18] = molecular target: T2, von Hippel-Lindau disease tumor suppressor/Dual specificity mitogen-activated protein kinase kinase 2/Dual specificity mitogen-activated protein kinase kinase 1 (Homo sapiens); test: Protac activity against VHL/MEK1/2 in human HT-29 cells harboring with BRAF V600E variant assessed as reduction in phosphorylation of ERK at T202/Y204 residues at 0.1 to 0.3 uM by Western blot analysis; type: cell-based; conditions: TDE = time-dependent effect
[19] = molecular target: T2, von Hippel-Lindau disease tumor suppressor/Dual specificity mitogen-activated protein kinase kinase 2/Dual specificity mitogen-activated protein kinase kinase 1 (Homo sapiens); test: Protac activity against VHL/MEK1/2 in human HT-29 cells harboring with BRAF V600E variant assessed as phosphorylation of MEK at S218/222 residues at 0.3 uM pretreated with VHL ligand, VH 032 for 2 hrs followed by incubation with compound for 10 hrs by Western blot analysis; type: cell-based
[20] = molecular target: T2, von Hippel-Lindau disease tumor suppressor/Dual specificity mitogen-activated protein kinase kinase 2/Dual specificity mitogen-activated protein kinase kinase 1 (Homo sapiens); test: Protac activity against VHL/MEK1/2 in human HT-29 cells harboring with BRAF V600E variant assessed as phosphorylation of MEK at S218/222 residues at 0.3 uM pretreated with proteasome inhibitor, MG-132 for 2 hrs followed by incubation with compound for 10 hrs by Western blot analysis; type: cell-based
[21] = molecular target: T2, von Hippel-Lindau disease tumor suppressor/Dual specificity mitogen-activated protein kinase kinase 2/Dual specificity mitogen-activated protein kinase kinase 1 (Homo sapiens); test: Protac activity against VHL/MEK1/2 in human SK-MEL-28 cells harboring with BRAF V600E variant assessed as phosphorylation of ERK at T202/Y204 residues at 0.3 uM pretreated with MEK1/2 inhibitor, PD0325901 for 2 hrs followed by incubation with compound for 10 hrs by Western blot analysis; type: cell-based
[22] = molecular target: T2, von Hippel-Lindau disease tumor suppressor/Dual specificity mitogen-activated protein kinase kinase 2/Dual specificity mitogen-activated protein kinase kinase 1 (Homo sapiens); test: Protac activity against VHL/MEK1/2 in human HT-29 cells harboring with BRAF V600E variant assessed as reduction in phosphorylation of ERK at T202/Y204 residues at 0.3 uM after 24 to 144 hrs by Western blot analysis; type: cell-based
[23] = molecular target: T1, von Hippel-Lindau disease tumor suppressor/Dual specificity mitogen-activated protein kinase kinase 2 (Homo sapiens); test: Protac activity against VHL/MEK2 in human HT-29 cells harboring with BRAF V600E variant assessed as degradation of MEK2 at 0.1 to 0.3 uM after 4 hrs by Western blot analysis; type: cell-based
[24] = molecular target: T1, von Hippel-Lindau disease tumor suppressor/Dual specificity mitogen-activated protein kinase kinase 2 (Homo sapiens); test: Protac activity against VHL/MEK2 in human HT-29 cells harboring with BRAF V600E variant assessed as degradation of MEK2 by measuring MEK2 protein level at 0.3 uM pretreated with VHL ligand, VH 032 for 2 hrs followed by incubation with compound for 10 hrs by Western blot analysis; type: cell-based
[25] = molecular target: T2, von Hippel-Lindau disease tumor suppressor/Dual specificity mitogen-activated protein kinase kinase 2/Dual specificity mitogen-activated protein kinase kinase 1 (Homo sapiens); test: Protac activity against VHL/MEK1/2 in human COLO205 cells harboring with BRAF V600E variant assessed as reduction in phosphorylation of MEK at S218/222 residues after 24 hrs by Western blot analysis; type: cell-based
[26] = molecular target: T1, von Hippel-Lindau disease tumor suppressor/Dual specificity mitogen-activated protein kinase kinase 2 (Homo sapiens); test: Protac activity against VHL/MEK2 in human HT-29 cells harboring with BRAF V600E variant assessed as degradation of MEK2 at 3 to 5 uM after 24 hrs by Western blot analysis; type: cell-based

T2 sequence (P36507 whole entry, looked up): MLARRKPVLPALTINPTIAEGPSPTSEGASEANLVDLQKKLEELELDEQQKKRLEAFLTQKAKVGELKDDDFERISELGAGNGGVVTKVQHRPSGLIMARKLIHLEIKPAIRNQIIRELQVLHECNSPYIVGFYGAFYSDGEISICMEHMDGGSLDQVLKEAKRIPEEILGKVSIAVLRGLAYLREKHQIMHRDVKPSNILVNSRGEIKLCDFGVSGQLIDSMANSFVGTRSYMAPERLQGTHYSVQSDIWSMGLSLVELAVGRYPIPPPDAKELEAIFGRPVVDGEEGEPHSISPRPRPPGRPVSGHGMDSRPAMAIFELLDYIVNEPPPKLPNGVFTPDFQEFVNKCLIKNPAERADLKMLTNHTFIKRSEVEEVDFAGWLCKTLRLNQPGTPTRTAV
T2 sequence (P40337 whole entry, looked up): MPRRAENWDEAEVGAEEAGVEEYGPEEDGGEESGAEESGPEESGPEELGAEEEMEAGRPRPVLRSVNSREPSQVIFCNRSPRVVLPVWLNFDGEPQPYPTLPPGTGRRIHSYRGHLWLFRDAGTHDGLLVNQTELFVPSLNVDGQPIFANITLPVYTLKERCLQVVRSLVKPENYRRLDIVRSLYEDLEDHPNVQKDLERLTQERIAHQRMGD
T2 sequence (Q02750 whole entry, looked up): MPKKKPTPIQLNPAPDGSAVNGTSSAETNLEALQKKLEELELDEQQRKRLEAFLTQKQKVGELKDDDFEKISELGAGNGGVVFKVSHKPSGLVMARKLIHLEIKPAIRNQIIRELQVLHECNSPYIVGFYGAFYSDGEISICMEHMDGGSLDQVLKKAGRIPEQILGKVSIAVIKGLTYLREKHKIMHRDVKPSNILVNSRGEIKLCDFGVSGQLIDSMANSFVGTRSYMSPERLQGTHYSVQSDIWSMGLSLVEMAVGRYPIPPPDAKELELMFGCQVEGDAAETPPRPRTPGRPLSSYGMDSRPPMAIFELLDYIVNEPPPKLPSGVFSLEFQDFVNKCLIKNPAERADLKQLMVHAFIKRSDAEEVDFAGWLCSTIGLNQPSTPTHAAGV
T1 sequence (P36507 whole entry, looked up): as the sequence (P36507 whole entry, looked up) above
T1 sequence (P40337 whole entry, looked up): as the sequence (P40337 whole entry, looked up) above
T3 sequence (P40337 whole entry, looked up): as above
T3 sequence (Q02750 whole entry, looked up): as the sequence (Q02750 whole entry, looked up) above
Sequence of von Hippel-Lindau disease tumor suppressor/Dual specificity mitogen-activated protein kinase kinase 2 (P36507 whole entry, looked up, stated change not applied): as the sequence (P36507 whole entry, looked up) above
Sequence of von Hippel-Lindau disease tumor suppressor/Dual specificity mitogen-activated protein kinase kinase 2 (P40337 whole entry, looked up, stated change not applied): as the sequence (P40337 whole entry, looked up) above
Sequence of von Hippel-Lindau disease tumor suppressor/Dual specificity mitogen-activated protein kinase kinase 1 (P40337 whole entry, looked up, stated change not applied): as the sequence (P40337 whole entry, looked up) above
Sequence of von Hippel-Lindau disease tumor suppressor/Dual specificity mitogen-activated protein kinase kinase 1 (Q02750 whole entry, looked up, stated change not applied): as the sequence (Q02750 whole entry, looked up) above
Sequence of von Hippel-Lindau disease tumor suppressor/Leukocyte receptor cluster member 8 (Homo sapiens) (P40337 whole entry, looked up): as the sequence (P40337 whole entry, looked up) above
Sequence of von Hippel-Lindau disease tumor suppressor/Leukocyte receptor cluster member 8 (Homo sapiens) (Q96PV6 whole entry, looked up): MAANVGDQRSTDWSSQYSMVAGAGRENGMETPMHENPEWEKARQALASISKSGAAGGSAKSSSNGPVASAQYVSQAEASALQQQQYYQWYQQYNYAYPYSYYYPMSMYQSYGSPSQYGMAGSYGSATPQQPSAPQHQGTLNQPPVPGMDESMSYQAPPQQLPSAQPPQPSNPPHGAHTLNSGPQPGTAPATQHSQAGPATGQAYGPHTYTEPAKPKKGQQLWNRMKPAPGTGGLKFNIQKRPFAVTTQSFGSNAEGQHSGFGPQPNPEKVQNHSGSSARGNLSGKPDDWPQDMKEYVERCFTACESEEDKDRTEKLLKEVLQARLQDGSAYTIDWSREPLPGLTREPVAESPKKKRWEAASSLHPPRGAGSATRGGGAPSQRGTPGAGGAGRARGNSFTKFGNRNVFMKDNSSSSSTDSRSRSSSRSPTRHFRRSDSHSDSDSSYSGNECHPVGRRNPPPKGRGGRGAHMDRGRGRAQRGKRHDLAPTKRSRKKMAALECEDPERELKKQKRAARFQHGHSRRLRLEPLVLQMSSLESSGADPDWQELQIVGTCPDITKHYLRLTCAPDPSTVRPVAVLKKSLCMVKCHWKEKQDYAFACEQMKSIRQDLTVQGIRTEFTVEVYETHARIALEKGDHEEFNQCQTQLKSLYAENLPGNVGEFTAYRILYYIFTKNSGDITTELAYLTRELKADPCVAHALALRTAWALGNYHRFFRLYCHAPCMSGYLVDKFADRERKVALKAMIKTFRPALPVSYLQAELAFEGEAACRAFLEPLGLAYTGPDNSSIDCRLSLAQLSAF

In the case of Cc1ncsc1-c1ccc([C@H](C)NC(=O)[C@@H]2C[C@@H](O)CN2C(=O)[C@@H](NC(=O)CCCCCCCCCCNCCCONC(=O)c2ccc(F)c(F)c2Nc2ccc(I)cc2F)C(C)(C)C)cc1, the DC50 [1] is reported as 27 nM, the Activity [2] is reported as “Dose-dependent effect” and the inhibition [3] is reported as “Active”. For the same compound, the Ratio [4] was 3 to 20, the Activity [5] was “inactive” and the Activity [6] was “inactive”. The Activity [7] was “inactive”, the Activity [8] was > 80% and the Activity [9] was “Dose-dependent effect”. The DC50 [10] was 31 nM, the Activity [11] was “inactive” and the Activity [12] was “Active”. The inhibition [13] was “Active”, the Activity [14] was > 90% and the Activity [15] was “Tde”. The Activity [16] was “inactive”, the Activity [17] was > 80% and the Activity [18] was “Tde”. For the same compound, the Activity [19] was “inactive”, the Activity [20] was “inactive” and the Activity [21] was “inactive”. The Activity [22] was “Active”, the Activity [23] was “Active” and the Activity [24] was “inactive”. For the same compound, the Activity [25] was “Dose-dependent effect” and the Activity [26] was “Active”.
